Source: patent publication US20040204596A1, “Method for the preparation of unsaturated hydroxy fatty acids and their esters, their use in pharmaceutical and/or cosmetic preparations” (Pierre Potier, priority 2001, published 2004)
Where “and” joins values, the source holds several entries; their conditions need not be identical. Equal values may be shown once. Each block holds one compound with its values, some of them ahead of it.

Key:
[1] = system: adipose tissue explants; assay: Lipolytic activity on adipose tissue explants ex vivo (lipids released in culture medium, TLC; histology); format: cell-based
Method: DHA was incorporated in the culture medium at a final concentration of 0.25 and 0.5%. After 8 days of contact, the activity was evaluated by quantitative determination of the lipids distributed in the culture medium.
Twelve adipose tissue explants (plasty P202-AB31) were prepared and placed in survival state in BEM medium (BIO-EC's Explants Medium). The explants were distributed in 4 lots of 3 explants:
one positive control lot (caffeine at 0.1%),
two product lots (DHA at 0.25 and 0.5%).
On Day 0, the explants were placed in survival state in 2 ml of culture medium, in which the product to be tested was incorporated.
This treatment was renewed on Day 2, Day 4 and Day 6.
On Day 2, Day 4, Day 6 and Day 8, the culture medium was collected. For each explant, the media collected on Day 2, Day 4, Day 6 and Day 8 were grouped together in the same tube and preserved at −20° C. for quantitative determination of the lipids.
On Day 8, the adipose tissue explants were collected and fixed in ordinary Bouin's fixative for the histological study.
The fixed adipose tissue explants were dehydrated, impregnated with paraffin, but in block form, sectioned and stained with Masson's trichrome.
After extraction of the culture medium, the lipids were separated and quantitatively determined by TLC.
The viability and morphology of the adipocytes was monitored by the histologic study.
The lipolytic activity was evaluated by analysis of the proportions of monoglycerides, diglycerides, triglycerides and free fatty acids.
The results are expressed in mass (μg) of each category of lipid released in the culture medium during the 8 days of treatment.
Table 5 below represents the statistical analysis using Student's test of the results of the quantitative determination of the fatty acids released in the culture medium during the 8 days of treatment.

[2] = system: cutaneous 5-alpha-reductase; assay: Inhibition of cutaneous 5-alpha-reductase activity; format: biochemical
Text: DHA is capable of inhibiting cutaneous 5-alpha-reductase, the enzyme responsible for the production of di-hydro-testosterone. Treatment with 0.1% of DHA and treatment with 0.5% of DHA reduced by about 70% and about 90%, respectively, the 5-alpha-reductase activity compared to an untreated control. This inhibition results in a considerable reduction of the sebum level.

[3] = system: collagenase; assay: Anticollagenase activity on frozen sections of human skin (picrosirius staining); format: biochemical; design: key to Alteration of the collagen structure: 0: An absence of alteration of the collagen structure; 1: somewhat; 2: markedly to very strongly altered collagen structure; settings: for Alteration of the collagen structure: frozen human skin sections, 2 hours at 37° C.; for inhibition of the activity of collagenase: collagenase 30 U/ml
Method: This example was performed with different solutions at concentrations of 1 and 2% of active principles in comparison with the excipient alone, buffer controls and collagenase. The active principles used were DHA, the 2-dimethylamino ethyl ester of trans-10-hydroxy-2-decenoic acid (ML40) and the glycerol ester of trans-10-hydroxy-2-decenoic acid (GM).
Frozen 5-μm-thick sections from a mammary plasty of a person were placed on histological slides (4 sections per slide). Each solution was tested on one slide.
The sections were covered with the solutions to be tested then incubated for 2 hours at 37° C. in a humid chamber. The solutions were eliminated by repeated rinsings and the sections were stained with picrosirius. Microscopic examination was performed with the 2.5 objective and paper photographs were taken with Kodak Gold 100 ASA film.
Table 2 summarizes the results of alteration of the collagen structure as a function of the tested solution. An absence of alteration of the collagen structure is indicated by 0 while a somewhat or markedly to very strongly altered collagen structure is indicated, respectively, by 1 or 2.

[4] = system: collagenase; assay: Anticollagenase activity on human skin explants maintained in survival state; format: cell-based
Method: The study was performed on a 5% GM product in comparison with the excipient (hydrocerin), a positive control and a control in the presence of collagenase at 100 U/ml.
Hydrocerin was used as the excipient for the preparation of the product to be applied. This study was performed twice. […] In the second study, the study time was extended and the collection of the explants was performed on Day 2 and on Day 4.
Human skin explants prepared and distributed into 16 lots of three explants each were placed in survival state according to Table 3.
The product was applied on Day 0 and on Day 2 at the rate of 20 mg per explant and collagenase was incorporated into the culture medium of the […].
Three explants of each lot were collected on Day 2 and on Day 4, fixed in ordinary Bouin's fixative and subjected to histological processing.
The histological study comprised:
impregnation in paraffin,
staining with Sirius red F3B,
calorimetric measurements of the collagen by image analysis,
comparison with photographs.
For this reason, the survival, the contact and the application were extended to Day 4. The collagenase action was monitored in two ways: intensity of the coloration of the collagen network and thickness of the dermal structure. With this study, penetration of the active principle and its inhibitory activity were correlated in relation to collagenase.

[5] = caffeine 0.1%, 8 days of treatment
[6] = 1% active principle + collagenase 30 U/ml
[7] = 1% active principle, no collagenase
[8] = 2% active principle + collagenase 30 U/ml
[9] = 2% active principle, no collagenase
[10] = DHA at 0.25%, 8 days of treatment
[11] = DHA at 0.5%, 8 days of treatment
[12] = product containing 5% of GM in hydrocerin, 20 mg per explant on Day 0 and Day 2, collagenase 100 U/ml, Day 4

SMILES: Cn1c(=O)c2c(ncn2C)n(C)c1=O [Caffeine, caffeine, reference compound]
% augmentation/Control of fatty acids released [1, 5]: 2780.6%
Diglycerides released in the culture medium, Mean [1, 5]: 0.02 µg
Fatty acids released in the culture medium, Mean [1, 5]: 27.99 µg
Monoglycerides released in the culture medium, Mean [1, 5]: 1.22 µg
Triglycerides released in the culture medium, Mean [1, 5]: 197.34 µg
fatty acids released in the culture medium, individual explants [1, 5]: 33.89 µg and 24.10 µg and 25.97 µg
% augmentation/Control of fatty acids released ([1]; caffeine 0.1%, 8 days of treatment, listed as caffeine): 2780%
augmentation factor of fatty acids released compared to the untreated control ([1]; caffeine at 0.1%, 8 days of treatment): about 29

SMILES: c1cnc2c(c1)ccc1cccnc12 [phenanthroline, reference compound]
dermal structure ([4]; positive control + collagenase 100 U/ml, Day 4): the same as that of the controls without collagenase

Now from value to compound, other results behind:

reduction of 5-alpha-reductase activity compared to an untreated control ([2]; treatment with 0.1% of DHA): about 70%
reduction of 5-alpha-reductase activity compared to an untreated control ([2]; treatment with 0.5% of DHA): about 90%
Alteration of the collagen structure [3, 6]: 0
Alteration of the collagen structure [3, 7]: 0
inhibition of the activity of collagenase ([3]; 1%): inhibited completely
Alteration of the collagen structure [3, 8]: 0
Alteration of the collagen structure [3, 9]: 0
inhibition of the activity of collagenase ([3]; 2%): inhibited completely
SMILES: O=C(O)/C=C/CCCCCCCO [DHA, trans-10-hydroxy-2-decenoic acid]
lipolytic activity (Student's test) ([1]; DHA applied at 0.25%): significant lipolytic activity
lipolytic activity (Student's test) ([1]; DHA applied at 0.5%): significant lipolytic activity
% augmentation/Control of fatty acids released [1, 10]: 1075% and 1075.6%
Diglycerides released in the culture medium, Mean [1, 10]: 0.00 µg
Fatty acids released in the culture medium, Mean [1, 10]: 11.42 µg
Monoglycerides released in the culture medium, Mean [1, 10]: 3.64 µg
Triglycerides released in the culture medium, Mean [1, 10]: 156.15 µg
fatty acids released in the culture medium, individual explants [1, 10]: 9.95 µg and 11.67 µg and 12.66 µg
% augmentation/Control of fatty acids released [1, 11]: 1087% and 1086.8%
Diglycerides released in the culture medium, Mean [1, 11]: 0.00 µg
Fatty acids released in the culture medium, Mean [1, 11]: 11.53 µg
Monoglycerides released in the culture medium, Mean [1, 11]: 7.06 µg
Triglycerides released in the culture medium, Mean [1, 11]: 202.56 µg
fatty acids released in the culture medium, individual explants [1, 11]: 12.81 µg and 11.64 µg and 10.14 µg
maximum effective dose (lipolytic effect) ([1]; adipose tissue explants, 8 days): ~0.25%

Alteration of the collagen structure [3, 6]: 2
Alteration of the collagen structure [3, 7]: 0
Alteration of the collagen structure [3, 8]: 1
Alteration of the collagen structure [3, 9]: 0
inhibition of the activity of collagenase ([3]; 2%): only slightly inhibited
SMILES: O=C(/C=C/CCCCCCCO)OCC(O)CO (stereo not drawn) [GM, glycerol ester of trans-10-hydroxy-2-decenoic acid]
anticollagenase activity ([4]; 5% GM product, human skin explants, collagenase 100 U/ml): pronounced anticollagenase activity
degradation of the collagen bundles [4, 12]: very slightly degraded
thickness of the dermis [4, 12]: diminished slightly

Alteration of the collagen structure [3, 6]: 2
Alteration of the collagen structure [3, 7]: 0
Alteration of the collagen structure [3, 8]: 1
Alteration of the collagen structure [3, 9]: 0
inhibition of the activity of collagenase ([3]; 2%): only slightly inhibited
SMILES: CN(C)CCOC(=O)/C=C/CCCCCCCO [ML40, 2-dimethylamino ethyl ester of trans-10-hydroxy-2-decenoic acid]
